# Where two headings read alike, the source gives them in different places.
# What was measured:
# Tmem16a = assay: Wholemount immunofluorescence for Tmem16a in tadpole skin after morpholino injection; format: in vivo, Xenopus tropicalis; settings: 15 ng MO injected into fertilised egg, tadpoles at NF38, vs MOC
# Method: (§1) Embryos for microinjection were de-jellied for approximately five minutes in 0.1 X MMR containing 2% (w/v) L-cysteine (pH 7.8), and washed several times in 0.1 X MMR. Microinjections were performed at NF1/fertilised egg (or, where indicated in the text, NF4/8-cell stage) using a Picospritzer III microinjector (Intracel) to inject 1–4 nl volumes. During injection and for one hour after, embryos were maintained in 0.1 X MMR containing 2% (w/v) Ficoll™ 400 (Thermo Fisher). Antisense morpholino oligonucleotides (MO) and standard control MO (MOC) were designed by and purchased from Gene Tools LLC. MO sequences were: MOC 5′-[…]-3′; tmem16a splice MO 5’-[…]-3’. MOs were reconstituted to 20 ng nl^−1 in non-DEPC-treated nuclease-free water (Thermo Fisher) and stored in small aliquots in tightly-sealed vials at room temperature. MOs were heated at 65 °C for five minutes then vortexed before dilution/use, to ensure the MO was fully dissolved. […]
# Wholemount chromogenic and fluorescence in situ hybridisation was performed as previously described[84],[85]. […] Chromogenic staining and fluorescence were visualised by stereomicroscopy (Leica M165 FC using Leica Application Suite X v5.2.2 software) and fluorescence by confocal imaging (Olympus IX81 using FV10-ASW v4.2 software). […] Fiji v2.14.0 software[88] was used to convert images into colours accesible to colour-blind readers.
# [1] = tested on: MucXS secretion from tadpole skin; assay: Ionomycin-induced MucXS secretion into tadpole media (slot blot, anti-MucXS); format: in vivo, Xenopus tropicalis; settings: 10 min, MO- vs MOC-injected embryos, three biological replicates, p = 0.0062
# Method: as §1
# Batches of 100 NF42 embryos were collected in 500 µl 0.01 X MMR in a single well of a 24-well plate. […] MucXS in unfractionated or fractionated media was detected via slot blotting and subsequent immunodetection with an anti-MucXS antibody. Quantification of signal from slot blots was achieved using Fiji v2.14.0 software to capture the raw integrated density of pixels for each signal band. […]
# X. tropicalis Tmem16a = X. tropicalis Tmem16a (Xenopus tropicalis, UniProt W8PFC5); assay: Whole-cell patch clamp (QPatch) of X. tropicalis Tmem16a transfected into HEK293 cells; format: cell-based
# Sequence of X. tropicalis Tmem16a (W8PFC5 entry or part of it): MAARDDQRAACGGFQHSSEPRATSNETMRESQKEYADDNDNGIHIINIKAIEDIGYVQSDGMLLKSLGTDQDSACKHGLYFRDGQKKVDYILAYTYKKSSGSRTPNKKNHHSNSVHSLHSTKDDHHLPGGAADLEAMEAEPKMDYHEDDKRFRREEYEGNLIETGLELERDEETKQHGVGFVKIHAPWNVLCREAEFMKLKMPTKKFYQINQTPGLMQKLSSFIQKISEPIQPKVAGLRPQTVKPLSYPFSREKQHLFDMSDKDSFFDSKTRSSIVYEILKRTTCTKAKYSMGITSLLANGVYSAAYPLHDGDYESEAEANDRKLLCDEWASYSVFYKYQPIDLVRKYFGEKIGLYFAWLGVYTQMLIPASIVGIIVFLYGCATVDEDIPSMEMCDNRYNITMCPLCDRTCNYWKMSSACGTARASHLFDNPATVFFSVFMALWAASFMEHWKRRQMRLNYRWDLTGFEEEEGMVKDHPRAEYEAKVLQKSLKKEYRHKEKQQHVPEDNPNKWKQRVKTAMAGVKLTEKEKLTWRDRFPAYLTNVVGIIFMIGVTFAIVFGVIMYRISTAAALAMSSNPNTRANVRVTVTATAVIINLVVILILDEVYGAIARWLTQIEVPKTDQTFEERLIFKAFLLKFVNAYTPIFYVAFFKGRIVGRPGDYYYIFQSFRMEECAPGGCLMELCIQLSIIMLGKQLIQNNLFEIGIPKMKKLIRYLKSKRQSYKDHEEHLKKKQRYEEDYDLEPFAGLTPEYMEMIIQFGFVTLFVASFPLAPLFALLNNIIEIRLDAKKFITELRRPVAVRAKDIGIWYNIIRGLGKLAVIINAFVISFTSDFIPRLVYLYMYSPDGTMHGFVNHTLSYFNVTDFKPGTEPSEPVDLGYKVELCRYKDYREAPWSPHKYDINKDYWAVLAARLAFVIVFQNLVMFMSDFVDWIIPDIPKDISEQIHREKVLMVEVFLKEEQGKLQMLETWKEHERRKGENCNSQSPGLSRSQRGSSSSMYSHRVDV
# Method: We cloned and expressed full-length X. tropicalis tmem16a in HEK293 cells. At 48 h post-transfection, channel conductance and pharmacological characteristics were examined by whole-cell voltage clamp. Tmem16a channel activity was evoked using membrane depolarisation in the presence of intracellular calcium, and resultant whole-cell currents measured using chloride-selective buffers.
# HEK Flp-In-293 null cells (Thermo Fisher) were stored, thawed and cultured as described by the supplier, but without antibiotic supplementation of the growth medium. For transfections, cells were seeded in 75 cm^2 vented culture flasks at a density of 0.018 × 10^6 cells per cm^2 and maintained at 37 °C in 5% CO2 for 24 h, to ensure approximately 40% confluence at the point of transfection. Cells were transfected with 6 µg of pCS2-tmem16a plasmid in a 1:6 volume ratio with transfection reagent GeneJammer (Agilent), according to the manufacturer’s protocol. Transfected cells were maintained in antibiotic-free growth medium at 37 °C in 5% CO2 for 24 h. The transfection medium was then aspirated, replaced with complete growth medium containing 1% penicillin-streptomycin (GIBCO), and cells cultured for a further 24 h at 37 °C in 5% CO2 to achieve 70–80% confluence prior to electrophysiology studies. HEK cells expressing Tmem16a were harvested using a 2:1 volume ratio of Detachin (AMSBio) and 0.05% Trypsin-EDTA (GIBCO), and resuspended in CHO serum-free medium (GIBCO) supplemented with 25 mM HEPES (GIBCO) and 0.04 mg ml^−1 trypsin inhibitor (Sigma Aldrich) to a density of 2.5-5.0 × 10^6 cells ml^−1. […] To prevent clumping of the suspended cells prior to assay, the cell suspension was maintained by stirring gently but continually at room temperature for 20 min to 2 hours.
# Single cell whole-cell patch clamp recordings were performed using the QPatch planar patch-clamp system (Sophion Biosciences). The automated platform resuspended the cells in extracellular buffer containing NMDG-Cl (130 mM), HEPES (10 mM), CaCl2 (2 mM) and MgCl2 (1 mM), adjusted to pH 7.30 using HCl and 325 mOsm using sucrose. On establishing single-cell giga-Ohm seals, cell membranes were ruptured by suction pulse and dialysed with intracellular solution containing NMDG-Cl (130 mM), EGTA (20 mM), CaCl2 (20 mM; calculated to deliver a free intracellular [Ca^2+] of 338 nM (https://somapp.ucdmc.ucdavis.edu/pharmacology/bers/maxchelator/webmaxc/webmaxcE.htm) at 22 °C to achieve high Tmem16a-mediated current activation for testing inhibitor compounds), HEPES (10 mM), BAPTA (10 mM), MgCl2 (1 mM) and Mg-ATP (2 mM), adjusted to pH 7.25 using HCl and 325 mOsm using sucrose. The calcium activation curve was achieved by varying CaCl2 concentration from 0 to 25.7 mM to generate a 0-1000 nM range of free intracellular [Ca^2+].
# Whole-cell recordings were performed from a resting membrane potential of - 70 mV, applied across the cell membrane between an intracellular (working) and extracellular (reference) electrode in each QPatch recording well. To activate Tmem16a currents, the membrane was depolarised once every 20 s for a duration of 1 s. For concentration-response experiments, this depolarising step was set to + 70 mV. To test current-voltage relationship, the depolarisations were varied between − 90 and + 90 mV in 20 mV increments. Signals were subject to fourth-order Bessel filtering (sampling frequency 10 kHz, cut-off 3 kHz). Capacitance and series resistance were monitored throughout the recordings; data was only accepted from wells in which these parameters remained stable.
# All current data was captured at the end of the 1 s depolarising voltage step.
# human TMEM16Aacd = settings: cited from earlier work
# human TMEM16Aabc = settings: whole-cell patch clamp ref 65; cited from earlier work
# [2] = tested on: background chloride current of sham HEK-293 transfects; assay: Whole-cell patch clamp of sham-transfected HEK cells (background chloride current); format: cell-based; settings: 100 µM CaCCinh-A01
# Description: Methods: Pharmacology data was generated from 16 QPatch runs. […] This definition of ‘transfected’ vs ‘untransfected’ was established by comparing transfected cell recordings with ‘sham’ transfects, i.e. cells that had undergone the same transfection process but with the omission of plasmid DNA (Supplementary Figure S1). […] Cells with these characteristics were deemed to be expressing X. tropicalis Tmem16a, and only recordings from successfully-transfected cells which additionally passed seal/series resistance and capacitance quality control criteria, were used in analysis of X. tropicalis Tmem16a currents.
# human TMEM16A = settings: cited from earlier work
# [3] = maximally-active current, 338 nM free [Ca2+]i (EC100), +70 mV, HEK293, mean ± SEM, read-out: IC50 X. tropicalis Tmem16a
compound,measurement,setting,value
tmem16a splice MO: antisense morpholino oligonucleotide 5'-AATGTTCATTCTTTTTACCTCTTCA-3' targeting donor splice site of exon 2 of tmem16a pre-mRNA (all phosphorodiamidate morpholino (PMO)),Tmem16a protein in the plasma membrane of SSCs in the tadpole skin,Tmem16a,complete loss
same,Increase of MucXS secretion from the tadpole skin,[1],3 fold
O=C(O)c1cccnc1Nc1cccc(C(F)(F)F)c1 [Niflumic acid],IC50,X. tropicalis Tmem16a,85.1 ± 19.1 µM
same,IC50,human TMEM16Aacd; whole-cell patch clamp ref 60,12.1 µM
same,IC50,human TMEM16Aacd; whole-cell patch clamp ref 61,8.34 µM
same,IC50,human TMEM16Aacd; whole-cell patch clamp ref 63,8.54 µM
CCc1oc2ccccc2c1C(=O)c1cc(Br)c(O)c(Br)c1 [Benzbromarone],IC50,X. tropicalis Tmem16a,3.3 ± 1.45 µM
same,IC50,human TMEM16Aacd; whole-cell patch clamp ref 63,4.09 µM
same,IC50,human TMEM16Aacd; whole-cell patch clamp ref 64,2.35 µM
same,IC50,human TMEM16Aabc,3.05 µM
CC(C)(C)C1CCc2c(sc(NC(=O)c3ccco3)c2C(=O)O)C1 (stereo not shown) [CaCCinhA01],Block of large slowly-activating current in tmem16a-transfected cells,X. tropicalis Tmem16a; 100 µM CaCCinh-A01,sensitivity to block
same,IC50,X. tropicalis Tmem16a; [3],12.9 ± 1.96 µM
same,Block of background chloride current in sham transfects,[2],blocked
O=C(O)c1c2ccccc2cc2ccccc12 [9-AC],IC50,X. tropicalis Tmem16a; [3],146 ± 65.8 µM
same,IC50,human TMEM16Aacd; whole-cell patch clamp ref 60,57.7 µM
COC1=C(OC)C(=O)C(CCCCCCCCCCO)=C(C)C1=O [Idebenone],IC50,X. tropicalis Tmem16a; [3],> 30 µM
same,% inhibition human TMEM16A by 10 µM,"human TMEM16A; 10 µM, whole-cell patch clamp ref 61",54%
same,% inhibition human TMEM16A by 30 µM,"human TMEM16A; 30 µM, whole-cell patch clamp ref 61",90%
"[Ca+2] [intracellular calcium, calcium]",EC50,"X. tropicalis Tmem16a; free [Ca2+]i varied, fixed depolarisation voltage, read-out: EC50 of intracellular calcium for current conductance",0.227 ± 0.043 µM
COc1ccccc1/C=N/NC(=O)COc1ccc(Cl)cc1C [Ani9],Block of large slowly-activating current in tmem16a-transfected cells,X. tropicalis Tmem16a; 10 µM Ani9,sensitivity to block
same,Inhibition of evoked Tmem16a current,"X. tropicalis Tmem16a; 10 µM Ani9, 1 s step from -70 to +70 mV, 338 nM free [Ca2+]i",completely inhibited
same,Inhibition of Tmem16a current conductance at varied [Ca2+]i,"X. tropicalis Tmem16a; 10 µM Ani9, all calcium concentrations, fixed depolarisation voltage",inhibited at all calcium concentrations
same,IC50,X. tropicalis Tmem16a; [3],0.098 ± 0.009 µM
CCc1c(C)nc(SCC(=O)Nc2nc(-c3ccc(OC)cc3)cs2)[nH]c1=O [T16inh-A01],Direct inhibition of X. tropicalis Tmem16a channel function,"X. tropicalis Tmem16a; maximal conductance, 338 nM free [Ca2+]i, +70 mV",did not directly inhibit
same,IC50,X. tropicalis Tmem16a; [3],> 30 µM
same,IC50,human TMEM16Aacd; whole-cell patch clamp ref 60,1.51 µM
same,IC50,human TMEM16Aacd; whole-cell patch clamp ref 63,> 30 µM
O=C(O)c1ccc(/C=C2\SC(=S)N(c3cccc(C(F)(F)F)c3)C2=O)cc1 [CFTR Inh-172],IC50,X. tropicalis Tmem16a; [3],> 30 µM
COc1cc(Nc2ccc([N+](=O)[O-])cc2C(=O)O)cc2ccccc12 [MONNA],IC50,X. tropicalis Tmem16a; [3],11.9 ± 3.45 µM
same,IC50,human TMEM16Aacd; whole-cell patch clamp ref 63,13.6 µM
